{
  "source": "patent US9532519B2",
  "about": "“Plant growth regulator and use thereof” (Japan Science and Technology Agency, priority 2006, dated 2017)",
  "key": {"[1]": {"system": "Rose saplings (breed; Purple rose)", "experiment": "Effect 1 on promoting growth of sprout and floral bud of rose (Purple rose)", "type": "in vivo", "settings": "50 mL of 0.5 mM-GSSG two times a week; one month from the fertilization", "experimental": "Rose saplings (breed; Purple rose) were purchased at a hardware store and cultivated in pods for rice hydroponics. The rose saplings were fertilized with 50 mL of a 0.5 mM-GSSG solution in the form of a liquid fertilizer two times a week."}, "Arabidopsis [2]": {"system": "Arabidopsis", "experiment": "Influence of oxidized glutathione on growth of Arabidopsis", "type": "in vivo", "settings": "in vivo", "experimental": "Specifically, the plants were cultivated with two or three plants in one pod of approximately 65 in width, 65 in depth, and 50 in height, and an appropriate amount of a treatment solution was supplied. The effect of the treatment was evaluated with respect to the number of rosette leaves, the speed of a growing flower stalk, the number of flowers, and the number of seeds."}, "[3]": {"system": "Rose (breed; Patiohit alicante)", "experiment": "Influence of oxidized glutathione on growth of rose (Patiohit alicante)", "type": "in vivo", "settings": "50 mL of 0.5 mM-GSSG two times a week for four months, then pruned", "experimental": "Rose (breed; Patiohit alicante) was fertilized with 50 mL of 0.5 mM-GSSG solution two times a week for four months and then pruned completely and cultivated."}, "Sweet corn [4]": {"system": "Sweet corn", "settings": "in vivo"}, "Arabidopsis [5]": {"system": "Arabidopsis", "settings": "in vivo"}, "[6]": {"system": "Roses (breed; Patiohit alicante)", "experiment": "Effect 1 on promotion of induction of floral bud of rose", "type": "in vivo", "settings": "50 mL of 0.5 mM-GSSG two times a week; approximately three and a half months", "experimental": "Roses (breed; Patiohit alicante) were purchased at a hardware store and fertilized with 50 mL of a 0.5 mM-GSSG solution in the form of a liquid fertilizer two times a week. Approximately three and a half months later, plants in a GSSG-treated zone and plants in a non-GSSG-treated zone were compared with each other."}, "Sweet corn [7]": {"system": "Sweet corn", "experiment": "Effect of oxidized glutathione on productivity of corn under nitrogen-deficient condition", "type": "in vivo", "settings": "nitrogen-deficient then 30 kgN/10a; 0.2, 0.5, 1.0 mM GSSG, 50 mL two times a week from 8 weeks after sowing", "experimental": "Sweet corn was sown and cultivated for […] (7 weeks) after the sowing without supplying a nitrogen source to the sweet corn. Thereafter, the sweet corn was cultivated with 30 kgN/10a of a nitrogen source. […] See the cultivation conditions in (c) of FIG. 33.\nIn order to examine the amount of production of the plants in more detail, the amounts of biomass of fruits, ground parts, and portions other than the fruits were measured, and harvest index was calculated."}, "[8]": {"system": "strawberry (breed; Eminent garden series, Yokubari-ichigo kurenai (SUMIKA))", "experiment": "Effect of oxidized glutathione on growth of strawberry (number of runners)", "type": "in vivo", "settings": "50 mL of 0.5 mM-GSSG two times a week; four months after the fertilization; Cont zone two or three runners"}, "Arabidopsis [9]": {"system": "Arabidopsis", "experiment": "Influence 5 of treatment condition on Arabidopsis: seed weight, dry weight, harvest index", "type": "in vivo", "experimental": "Seeds of Arabidopsis were sown in pods filled with soil immersed in water. The pods were transferred to trays filled with water containing 0.2 mM-GSSG or 1 mM-GSSG and cultivated there only for two weeks that were the first and second weeks (0th-14th day), the third and fourth weeks (15th-28th day), the fifth and sixth weeks (29th-42nd day), or the seventh and eighth weeks (43rd-56th day) after the sowing. That is, Arabidopsis were treated with 0.2 mM-GSSG or 1 mM-GSSG only for two weeks in a specific growth period.\n(§1) Arabidopsis was cultivated under the same conditions as those described in <1. Influence of oxidized glutathione on growth of Arabidopsis> except for the above condition.\nThe seed weight, dry weight, and harvest index of Arabidopsis thus cultivated (three plants in each pod) were measured and an average of three pods was calculated."}, "Tsai-hsin": {"system": "Tsai-hsin", "experiment": "Influence of oxidized glutathione on growth of tsai-hsin, agricultural field", "type": "in vivo", "settings": "0.5 mM- or 5 mM-GSSG sprayed to leaves two times a week, 1 L per zone (3 m^2)", "excerpt": "Tsai-hsin was cultivated for two weeks, and then transferred to an agricultural field and grown with or without the treatment with GSSG. Tsai-hsin was fertilized with a nitrogen fertilizer that was KUMIAI RIN […] S604 in a ratio of 20 kgN per 10 are, and was additionally fertilized with 5 kgN 3 weeks later."}, "[10]": {"system": "transformants of Arabidopsis to which the gFBA gene was introduced and wild-type Arabidopsis (Columbia; Col)", "experiment": "Influence 3 of oxidized glutathione on gFBA transformant Arabidopsis (GSSG only, 0 mM to 5 mM)", "type": "in vivo", "settings": "only GSSG as liquid fertilizer", "excerpt": "This tendency was more clearly observed in the transformants of Arabidopsis to which the gFBA gene was introduced."}, "[11]": {"system": "Rose (breed; English rose)", "experiment": "Influence of oxidized glutathione on growth of rose (English rose)", "type": "in vivo", "settings": "50 mL of 0.5 mM-GSSG two times a week for four months, then pruned", "experimental": "Rose (breed; English rose) was fertilized with 50 mL of a 0.5 mM-GSSG solution two times a week for four months and then pruned completely and cultivated."}, "Sweet corn [12]": {"system": "Sweet corn", "experiment": "Effect 4 of oxidized glutathione on productivity of corn (method and time of treatment)", "type": "in vivo", "settings": "20 mL of 0.2 mM-GSSG each time, to roots or sprayed to stem and leaves; any of the treatment times", "experimental": "Sweet corn was cultivated under the same conditions as those of <15.\nHarvest index of the plant thus obtained was measured."}, "Arabidopsis [13]": {"system": "Arabidopsis", "experiment": "Effect of concentration of oxidized glutathione on growth of Arabidopsis", "type": "in vivo", "experimental": "Specifically, soil filled in a pod of approximately 65 in width, 65 in depth, and 50 in height was immersed in 0 mM-, 0.01 mM-, 0.2 mM-, 1 mM-, 2 mM-, and 5 mM-GSSG solutions. Seeds of Arabidopsis were sown in such a manner that approximately three seeds existed in each pod, and the seeds were observed chronologically 3 weeks after the sowing."}, "Arabidopsis [14]": {"system": "Arabidopsis", "experiment": "Influence 2 of treatment condition on seeds of Arabidopsis (start time of 1 mM-GSSG)", "type": "in vivo", "settings": "regardless of the time of treating", "experimental": "Seeds of Arabidopsis were sown in pods filled with soil immersed in water. The pods were transferred to trays with water containing 1 mM-GSSG 2 days after, 1 week after, 2 weeks after, 3 weeks after, 4 weeks after, 5 weeks after, 6 weeks after, or 7 weeks after the sowing.\nas §1\nThe seed weight per one pod, obtained from Arabidopsis thus cultivated (three plants in each pod), was measured."}, "[15]": {"settings": "soil immersed in 0-5 mM GSSG solutions"}},
  "note": "Like-named read-outs stand apart in the source and are kept apart here.",
  "data": [
    {"substance": "oxidized glutathione [GSSG]", "values": [
      {"measurement": "growth of sprout vs not treated", "setting": "[1]", "result": "promoted growth of sprout"},
      {"measurement": "effective number of seeds per plant relative to plants cultivated with only water or 5 mM H2O2", "setting": "Arabidopsis [2]", "result": "approximately three or four times as large"},
      {"measurement": "growth of leaves (size and shape)", "setting": "Arabidopsis [2]", "result": "grew larger and rounder"},
      {"measurement": "number of flowers and area of leaves", "setting": "Arabidopsis [2]", "result": "greatly larger"},
      {"measurement": "plant length, stem and leaves", "setting": "Arabidopsis [2]", "result": "shorter plant length, a thicker stem, and larger leaves"},
      {"measurement": "state of plant (life of plant)", "setting": "Arabidopsis [2]", "result": "showed much amount of green leaves"},
      {"measurement": "growth of new floral buds vs not treated", "setting": "[3]", "result": "significant promotion of growth of new floral buds"},
      {"measurement": "amount of biomass of fruits per plant vs not treated", "setting": "Sweet corn [4]", "result": "higher amount of biomass of fruits"},
      {"measurement": "amount of biomass of ground parts vs not treated", "setting": "Sweet corn [4]", "result": "substantially the same or lower amount of biomass of ground parts"},
      {"measurement": "amount of biomass of the portions other than fruits vs not treated", "setting": "Sweet corn [4]", "result": "lower amount of biomass of the portions other than fruits"},
      {"measurement": "amounts of biomass of the portions other than fruits and ground parts vs not treated", "setting": "Sweet corn [4]", "result": "greatly lower amounts of biomass of the portions other than fruits and ground parts"},
      {"measurement": "harvest index vs not treated", "setting": "Sweet corn [4]", "result": "higher harvest index"},
      {"measurement": "whole amount of biomass per area vs not treated", "setting": "Sweet corn [4]", "result": "did not exhibit a significant difference"},
      {"measurement": "seed weight per one pod vs not treated", "setting": "Arabidopsis [5]", "result": "significantly increased the seed weight"},
      {"measurement": "number of bloomed flowers vs not treated", "setting": "[6]", "result": "greatly larger number of bloomed flowers"},
      {"measurement": "amount of fruits vs not treated", "setting": "Sweet corn [7]", "result": "larger amount of fruits"},
      {"measurement": "amounts of biomass of fruits, ground parts, portions other than the fruits, and harvest index vs not treated", "setting": "Sweet corn [7]", "result": "larger amounts of biomass of fruits, ground parts, and portions other than the fruits and harvest index"},
      {"measurement": "number of runners per one stock", "setting": "[8]", "result": "several ten runners per one stock"},
      {"measurement": "dry weight vs not treated", "setting": "Arabidopsis [9]; 0.2 mM-GSSG", "result": "increased little"},
      {"measurement": "harvest index vs not treated", "setting": "Arabidopsis [9]; 0.2 mM-GSSG", "result": "increased"},
      {"measurement": "seed weight vs not treated", "setting": "Arabidopsis [9]; 0.2 mM-GSSG", "result": "increased"},
      {"measurement": "dry weight vs not treated", "setting": "Arabidopsis [9]; 1 mM-GSSG", "result": "evidently increased"},
      {"measurement": "seed weight vs not treated", "setting": "Arabidopsis [9]; 1 mM-GSSG", "result": "evidently increased"},
      {"measurement": "harvest index vs not treated", "setting": "Arabidopsis [9]; 1 mM-GSSG, except when treated 1 or 2 weeks after the sowing", "result": "evidently increased"},
      {"measurement": "amount of growth vs normal nitrogen management zone", "setting": "Tsai-hsin", "result": "significant increase in the amount of growth"},
      {"measurement": "effects of increasing seed weight and harvest index compared with ammonium nitrate", "setting": "[10]", "result": "greatly larger than the maximum effects yielded by fertilization with nitrogen resulting from ammonium nitrate"},
      {"measurement": "concentration of GSSG at which the effect on harvest index was saturated", "setting": "[10]; 0 mM to 5 mM", "result": "approximately 2 mM"},
      {"measurement": "seed weight as function of GSSG concentration", "setting": "[10]; 0 mM to 5 mM", "result": "increased as concentration of GSSG increased, and the effect was not saturated at the tested concentration"},
      {"measurement": "germination and growth of new buds vs not treated", "setting": "[11]", "result": "significantly earlier germination and significant promotion of growth of new buds"},
      {"measurement": "harvest index vs not treated", "setting": "Sweet corn [12]", "result": "significantly increased"},
      {"measurement": "difference from Arabidopsis cultivated with water (0 mM)", "setting": "Arabidopsis [13]; 0.01 mM GSSG", "result": "almost no difference"},
      {"measurement": "concentration at which making a leaf rounder and lengthening the life of a plant were clearly observed", "setting": "Arabidopsis [13]; [15]", "result": "0.2 to 2", "unit": "mM"},
      {"measurement": "concentration at which making a stem thicker was observed", "setting": "Arabidopsis [13]; [15]", "result": "1 to 2", "unit": "mM"},
      {"measurement": "seed weight per one pod vs no treatment", "setting": "Arabidopsis [14]", "result": "more seed weight"}
    ]}
  ]
}
